Data as given in patent US4983596A, “3-pyrrolidinylthio-1-azabicyclo[3.2.0]-hept-2-ene-2-carboxylic acid derivatives and their preparation” (Fujisawa Pharmaceutical Company, Ltd., priority 1988, dated 1991).
Values after ≈ are worked out from the molar mass of the structure shown.

Test system: P. aeruginosa 26
Test: in vitro Antimicrobial Activity, two-fold agar-plate dilution method (MIC)
Type: cell-based
Details: Pseudomonas aeruginosa; Test strain P. aeruginosa 26; heart infusion agar; 10^6 viable cells per ml; incubation at 37° C. for 20 hours; read-out: MIC (minimal inhibitory concentration)
Protocol: in vitro Antimicrobial Activity
in vitro Antimicrobial Activity was determined by the two-fold agar-plate dilution method as described blow. […]
The product of Example (2-1).

Q: For `C[C@@H](O)[C@H]1C(=O)N2C(C(=O)O)=C(S[C@@H]3CN[C@H](COCCF)C3)[C@H](C)[C@H]12` [Example (2-1), (4R,5S,6S)-3-[(2S,4S)-2-(2-fluoroethyloxymethyl)pyrrolidin-4-yl]thio-6-[(1R)-1-hydroxyethyl]-4-methyl-7-oxo-1-azabicyclo[3.2.0]hept-2-ene-2-carboxylic acid], which MIC is on record?
A: Its MIC is 0.39 µg/mL (≈ 1 µM).
